Where two headings read alike, the source gives them in different places.
Assays:
NANOLUC® luciferase [1] = molecular target: T1, NANOLUC® luciferase (Oplophorus gracilirostris, UniProt Q9GV45, A31E/A60N/A81I/F95D/I117V/K70R/L54V/L99Q/M102K/N193R/P142E/Q151K/Q38R/Q45L/V71I/Y165I); assay: Luminescent spectra of NANOLUC luciferase in the presence of coelenterazine analogue (peak emission); type: biochemical; settings: for λ max (nm): peak luminescence emission with NANOLUC luciferase
Description: FIGS. 1A-1B show kinetic and spectral properties of coelenterazine analogues. (FIG. 1A) Michaelis-Menten analysis determining the relative luminescence produced by 0.01 nM NANOLUC® luciferase at various concentrations of coelenterazine analogues. […] (FIG. 1B) Luminescent spectra of 0.5 nM NANOLUC® luciferase in the presence of 20 μM coelenterazine analogue.
Experiments were conducted during the development of embodiments herein to test the effect of derivatization on the biochemical properties of novel coelenterazine analogues. Properties tested include the analogues' ability to be utilized by NANOLUC® luciferase, as assessed through the determination of Vmax and KM, as well as the peak wavelength of luminescence emission.

NANOLUC® luciferase [2] = molecular target: T1, NANOLUC® luciferase; assay: Michaelis-Menten analysis of relative luminescence produced by NANOLUC luciferase at various concentrations of coelenterazine analogues; type: biochemical; settings: 0.01 nM NANOLUC luciferase; for Vmax (norm): normalised to furimazine = 1; for Km: read-out: Km

T1 sequence (Q9GV45 other isoform, or with tags, fused parts or gaps with the stated changes): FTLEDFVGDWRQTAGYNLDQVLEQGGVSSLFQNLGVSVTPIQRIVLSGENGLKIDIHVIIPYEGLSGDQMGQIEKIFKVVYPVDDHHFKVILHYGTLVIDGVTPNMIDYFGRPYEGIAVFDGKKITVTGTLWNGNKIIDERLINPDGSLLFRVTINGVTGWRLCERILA

| Compound | λ max (nm) (NANOLUC® luciferase [1]; Table 1) | Vmax (norm) (NANOLUC® luciferase [2]; Table 1) | λ max (nm) (NANOLUC® luciferase [1]; Table 2) | Vmax (norm) (NANOLUC® luciferase [2]; Table 2) | other results |
| --- | --- | --- | --- | --- | --- |
| O=C1C(Cc2ccco2)N=C2C(c3cncc(Cl)c3)=NC(c3ccccc3)=CN12 (stereo not shown) [Compound 9812, 8-(5-chloropyridin-3-yl)-2-(furan-2-ylmethyl)-6-phenylimidazo[1,2-a]pyrazin-3(7H)-one] |  |  |  |  | shift of peak emission relative to compound 7314 (NANOLUC® luciferase [1]; reacted with NANOLUC luciferase, chloropyridin group in place of phenyl ring of 7314): red-shift the peak emission |
| O=c1c(Cc2ccco2)nc2c(-c3cnnc(Cl)c3)[nH]c(-c3ccccc3)cn1-2 [Compound 9894, 8-(6-Chloropyridazin-4-yl)-2-(furan-2-ylmethyl)-6-phenylimidazo[1,2-a]pyrazin-3(7H)-one] |  |  |  |  | peak emission (λem) (NANOLUC® luciferase [1]; Scheme 1, 0.5 nM NANOLUC luciferase, 20 μM coelenterazine analogue): 622 nm |
| O=c1c(Cc2ccco2)nc2c(-c3cnnc(Cl)c3)[nH]c(-c3cccc(F)c3)cn1-2 [Compound 10299] | 622 | 0.000505 |  |  |  |
| COc1cccc(-c2cn3c(=O)c(Cc4ccco4)nc-3c(-c3cnnc(Cl)c3)[nH]2)c1 [Compound 10300] |  | 0.000505 |  |  |  |
| O=c1c(Cc2ccco2)nc2c(-c3cnnc(Cl)c3)[nH]c(-c3cccc(F)c3F)cn1-2 [Compound 10427, 8-(6-chloropyridazin-4-yl)-6-(2,3-difluorophenyl)-2-(furan-2-ylmethyl)imidazo[1,2-a]pyrazin-3(7H)-one] |  |  | 600 | 0.0015 |  |
| O=c1c(Cc2ccco2)nc2c(Cc3ccccc3)[nH]c(-c3ccccc3)cn1-2 [Furimazine, reference compound] | 466 | 1 | 462 | 1 | Km (NANOLUC® luciferase [2]; Table 1): 0.23 µM; Km (NANOLUC® luciferase [2]; Table 2): 0.56 µM |
